The term inhibition denotes the drop in the measured response relative to a control, in per cent. One may read the half-life as the time needed for the level to fall by half in the phase considered. A high value points to slow decline. For orientation: Ki means the equilibrium dissociation constant of an inhibitor or competing ligand from its target. Lower therefore signals tighter binding.

We go through 4 molecules from patent US10759791B2, “Mammalian and bacterial nitric oxide synthase inhibitors” (Northwestern University, priority 2014, dated 2020).

For data set [1], the target named is CYP2B6 (Homo sapiens (Human), UniProt P20813). Put plainly: in vitro. Particulars: microsomes, pH 7.4.
For data set [2], the target named is CYP2C9 (Homo sapiens (Human), UniProt P11712). The data set can be described thus: in vitro. The following applies: microsomes, pH 7.4.
Sequence of CYP2C9 (P11712 whole entry): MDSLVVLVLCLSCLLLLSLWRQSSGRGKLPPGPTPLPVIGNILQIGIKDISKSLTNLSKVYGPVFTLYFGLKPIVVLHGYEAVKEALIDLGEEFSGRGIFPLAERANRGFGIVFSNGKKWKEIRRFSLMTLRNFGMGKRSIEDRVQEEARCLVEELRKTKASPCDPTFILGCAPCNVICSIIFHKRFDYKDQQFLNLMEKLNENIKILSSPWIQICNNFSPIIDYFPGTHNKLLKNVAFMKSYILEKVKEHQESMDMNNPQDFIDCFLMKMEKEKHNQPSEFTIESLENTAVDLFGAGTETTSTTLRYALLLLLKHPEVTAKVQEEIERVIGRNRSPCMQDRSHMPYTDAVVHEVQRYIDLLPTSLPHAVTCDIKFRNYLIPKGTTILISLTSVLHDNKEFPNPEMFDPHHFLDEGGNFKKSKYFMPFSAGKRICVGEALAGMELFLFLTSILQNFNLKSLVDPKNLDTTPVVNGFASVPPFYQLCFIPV
For data set [3] the following is noted: 37° C.
In data set [4] the target is CYP1A2 (Homo sapiens (Human), UniProt P05177). Put plainly: CYP inhibition assay, human liver microsomes. The following applies: human, microsomes, pH 7.4.
Sequence of CYP1A2 (P05177 whole entry): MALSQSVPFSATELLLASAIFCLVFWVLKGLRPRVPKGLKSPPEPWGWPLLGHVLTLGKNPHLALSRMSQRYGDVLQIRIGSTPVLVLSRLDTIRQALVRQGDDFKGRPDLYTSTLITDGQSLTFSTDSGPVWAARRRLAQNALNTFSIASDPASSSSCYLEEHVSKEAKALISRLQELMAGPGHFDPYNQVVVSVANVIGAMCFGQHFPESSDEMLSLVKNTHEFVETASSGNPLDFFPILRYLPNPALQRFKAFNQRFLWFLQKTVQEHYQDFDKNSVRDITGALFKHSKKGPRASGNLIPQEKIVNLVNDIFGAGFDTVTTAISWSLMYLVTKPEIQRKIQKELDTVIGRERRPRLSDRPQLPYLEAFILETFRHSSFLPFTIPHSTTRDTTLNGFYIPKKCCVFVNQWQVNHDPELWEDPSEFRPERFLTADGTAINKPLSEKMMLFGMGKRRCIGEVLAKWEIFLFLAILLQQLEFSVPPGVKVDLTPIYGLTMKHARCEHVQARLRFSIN
The target of data set [5] is CYP2D6 (Homo sapiens (Human), UniProt P10635). The data set can be described thus: CYP inhibition assay, human liver microsomes. Particulars: pH 7.4.
Sequence of CYP2D6 (P10635 whole entry): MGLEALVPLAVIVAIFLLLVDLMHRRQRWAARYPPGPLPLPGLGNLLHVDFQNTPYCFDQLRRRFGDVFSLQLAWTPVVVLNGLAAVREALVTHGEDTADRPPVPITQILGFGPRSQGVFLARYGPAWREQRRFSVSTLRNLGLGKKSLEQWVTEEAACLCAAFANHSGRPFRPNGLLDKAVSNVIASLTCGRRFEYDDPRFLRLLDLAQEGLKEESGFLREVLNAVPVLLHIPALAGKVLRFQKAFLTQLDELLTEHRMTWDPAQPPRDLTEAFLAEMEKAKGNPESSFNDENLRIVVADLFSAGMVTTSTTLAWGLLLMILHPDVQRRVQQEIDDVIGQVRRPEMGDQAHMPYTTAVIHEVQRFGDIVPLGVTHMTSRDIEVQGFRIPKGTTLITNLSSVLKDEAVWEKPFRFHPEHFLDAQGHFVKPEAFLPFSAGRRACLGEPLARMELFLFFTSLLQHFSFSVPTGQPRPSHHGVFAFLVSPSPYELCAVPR
Data set [6] in a line: in vitro. Particulars: human, pH 7.4.
Data set [7] can be described thus: in vitro. Particulars: human, microsomes, pH 7.4.
The target of data set [8] is T1, CYP2C8 (Homo sapiens (Human), UniProt P10632). The data set can be described thus: in vitro. The following applies: microsomes, pH 7.4.
T1 sequence (P10632 whole entry): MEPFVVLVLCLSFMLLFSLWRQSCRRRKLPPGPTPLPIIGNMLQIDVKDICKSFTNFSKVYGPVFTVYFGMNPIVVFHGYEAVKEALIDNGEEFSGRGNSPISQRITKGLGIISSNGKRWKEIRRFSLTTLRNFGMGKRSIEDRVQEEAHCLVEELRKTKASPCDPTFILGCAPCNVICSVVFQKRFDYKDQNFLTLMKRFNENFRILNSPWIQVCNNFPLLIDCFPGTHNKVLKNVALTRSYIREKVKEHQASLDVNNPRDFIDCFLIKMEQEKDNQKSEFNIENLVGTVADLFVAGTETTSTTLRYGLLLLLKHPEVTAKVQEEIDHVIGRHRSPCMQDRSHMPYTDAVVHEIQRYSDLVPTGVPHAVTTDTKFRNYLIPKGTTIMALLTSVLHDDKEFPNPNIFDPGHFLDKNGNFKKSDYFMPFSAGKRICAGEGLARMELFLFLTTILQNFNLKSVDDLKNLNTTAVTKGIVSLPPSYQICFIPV
The target in data set [9] is human eNOS (Homo sapiens (Human), UniProt P29474). Put plainly: Hemoglobin capture assay, Ki (Example 159). It counts as biochemical.
The target in data set [10] is human nNOS (Homo sapiens (Human), UniProt P29475). The data set can be described thus: Hemoglobin capture assay, Ki (Example 159). The class given is biochemical.
The target of data set [11] is bovine eNOS (Bos taurus (Bovine), UniProt P29473). Put plainly: Hemoglobin capture assay, Ki (Example 159). The class given is biochemical.
The target in data set [12] is bsNOS (Bacillus subtilis (strain 168), UniProt O34453). The data set can be described thus: Imidazole displacement, spectral binding constant KS. The following applies: 50 μM H4B.
Sequence of bsNOS (O34453 whole entry): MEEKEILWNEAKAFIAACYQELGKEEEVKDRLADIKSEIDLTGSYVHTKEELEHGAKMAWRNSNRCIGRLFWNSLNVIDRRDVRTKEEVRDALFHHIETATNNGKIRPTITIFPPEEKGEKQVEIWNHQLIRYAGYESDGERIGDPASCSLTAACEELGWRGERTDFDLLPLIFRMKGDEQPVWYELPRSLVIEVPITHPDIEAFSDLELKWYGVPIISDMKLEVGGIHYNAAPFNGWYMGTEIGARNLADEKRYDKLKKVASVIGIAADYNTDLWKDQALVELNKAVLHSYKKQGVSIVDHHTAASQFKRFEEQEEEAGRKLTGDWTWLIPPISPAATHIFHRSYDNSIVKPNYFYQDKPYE
The target of data set [13] is T1, CYP2C8. The following applies: 10 μM.
Setting [14] is: human, microsomes, 0 h, 1 μM, pH 7.4.

Values joined by “and” are separate entries in the source; they are usually repeats but may differ in a detail not shown here. Equal values may be shown once. Marks after values point to notes of the source that are not given here. Where only a bound is given, the exact number is not on record here.

Regarding `CNCCCc1cncc(CCc2cc(C)cc(N)n2)c1` [Compound 14j, 4-Methyl-6-(2-(5-(3-(methylamino)propyl)pyridin-3-yl)ethyl)pyridin-2-amine], the figures for the inhibition at 10 µM in [1] and in [8] were 8% and 2%, respectively. In addition, the inhibition at 10 min, 10 µM in [2] was determined as 0%; in data set [4] it was 9%; in data set [5], 6%. Further, the “% compound remaining at 4 h” value in data set [3] was 90%. This molecule gave a recovery at 4 h, 5 μM in data set [6] of 91%. Further, in data set [7], the half-life at 1 μM was above 1 h. Besides, the “% Remaining, 90 minutes (−NADPH)” value (1 μM) is 78^b % and 78%. Moreover, the “CLh, int” value (1 μM) turned out to be 10.4 mL/min/kg. Besides, for the setting “1 μM, heat inactivated microsomes minus NADPH”, the “% Remaining, 90 minutes (Buffer)” value is 95^b % and 95%. Where the note is “1 μM, in 60 min in the absence of NADPH or in 90 min in the presence of NADPH”, the “% of the compound lost” value worked out at 23%. Further, the “Percentage in HLM, Minus NADPH, 0 min” value under setting [14] stood at 100%. Also, the “Percentage in HLM, Plus NADPH, 0 min” value under setting [14] amounted to 100%. Further, for the setting “human, microsomes, […], 1 μM, pH 7.4”, the “Percentage in HLM, Plus NADPH, 45 min” value was 87%. Further, the “Percentage in HLM, Heat inactivated microsomes, 0 min” value (minus NADPH (buffer control)) amounted to 100%.
For `Cc1cc(N)nc(CCc2cncc(CCCN(C)C)c2)c1` [Compound 14k, 6-(2-(5-(3-(Dimethylamino)propyl)pyridin-3-yl)ethyl)-4-methylpyridin-2-amine], the inhibition constant Ki was found to be 39.5 µM in data set [9], 0.037 µM in [10] and 16.6 µM in data set [11].
Take `NC(=NCCC[C@H](N)C(=O)O)NO` [NOHA, N-omega-hydroxy-L-arginine]: the “fold difference in binding (KS) in presence vs absence of H4B” value in [12] is 1.2 fold.
In the case of `O=c1c(O)c(-c2ccc(O)c(O)c2)oc2cc(O)cc(O)c12` [Quercetin], the “% inhibition CYP2C8” value in data set [13] amounted to 95%.
